Measured values taken from ChEMBL document CHEMBL1201862, “PubChem BioAssay data set” (2004).
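Dose response: 5 concentrations. Exposure: 48 h. Format: 96-well plates. Endpoint: linear interpolation; highest concentration if not reached. The concentration for 50% growth inhibition is given as GI50.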 Calls of active or inactive are those of the source. Cut-off read from the data, not from the text of the source: active = GI50 up to about 1.1 µM and inactive = higher. Starred links: 1 amine or outer side, 2 acyl side, 3 side chain; linkers in the order of their positions; H or OH if unused. Positions of bridges follow the written chain, without caps; N, C: chain ends. Non-standard residues stand in square brackets, D forms with d. Residues, ends and D or L forms follow the SMILES beside them. Chains are numbered I, II in the order given. Actinocin(1to9) = Cc1c2oc3c(C)ccc(C(=O)[*:2])c3nc-2c(C(=O)[*:1])c(N)c1=O; aThr = C[C@H](O)[C@H](N)C(=O)O; NMeV = CN[C@H](C(=O)O)C(C)C; Sar = CNCC(=O)O

Experiments:
Test in all cases: growth of human tumour cells (NCI), 48 h
XF498 = test system: XF498
M19-MEL = test system: M19-MEL
DMS-114 = test system: DMS-114
DMS-273 = test system: DMS-273
SNB-78 = test system: SNB-78
LXFL 529 = test system: LXFL 529
HOP-18 = test system: HOP-18
KM-20L2 = test system: KM-20L2
RXF 631 = test system: RXF 631

SMILES	GI50 (XF498)	GI50 (M19-MEL)	GI50 (DMS-114)	GI50 (DMS-273)	GI50 (SNB-78)	GI50 (LXFL 529)	GI50 (HOP-18)	GI50 (KM-20L2)	GI50 (RXF 631)
c1ccc(OCc2nnc3n2N=C(c2ccccc2)CS3)cc1	> 100 µM (inactive)	> 100 µM (inactive)	> 100 µM (inactive)	> 100 µM (inactive)	> 100 µM (inactive)	> 100 µM (inactive)	–	–	–
Clc1ccc(-c2c(C3=NCCCN3)nnn2-c2ccc(Cl)cc2)cc1	22.6 µM (inactive)	–	21.7 µM (inactive)	60.5 µM (inactive)	43.6 µM (inactive)	29 µM (inactive)	> 100 µM (inactive)	29.5 µM (inactive)	–
Nc1ncnc2c(C3OC(CO)C(O)C3O)scc12 (configuration not stated)	0.0282 µM (active)	0.369 µM (active)	0.0292 µM (active)	0.00377 µM (active)	4.31 µM (inactive)	0.129 µM (active)	< 0.01 µM (active)	0.00516 µM (active)	–
O=C(Nc1cc(Cl)ccc1Cl)C(=O)C(c1cnc2ccccc2n1)[N+](=O)[O-] (configuration not stated)	> 100 µM (inactive)	> 100 µM (inactive)	> 100 µM (inactive)	–	> 100 µM (inactive)	> 100 µM (inactive)	> 100 µM (inactive)	> 100 µM (inactive)	> 100 µM (inactive)
O=[N+]([O-])c1ccc2nc(/C(=N\Nc3ccccc3)C(O)c3ccc4c(c3)OCO4)c(O)nc2c1 (configuration not stated)	–	> 100 µM (inactive)	37.4 µM (inactive)	37.7 µM (inactive)	> 100 µM (inactive)	50.7 µM (inactive)	–	67 µM (inactive)	> 100 µM (inactive)
COc1ccc(-c2nc(N)n(C)c2SSc2c(-c3ccc(OC)cc3)nc(N)n2C)cc1	2.13 µM (inactive)	2.29 µM (inactive)	2.26 µM (inactive)	3.88 µM (inactive)	–	1.67 µM (inactive)	5.57 µM (inactive)	12.9 µM (inactive)	–
CC1=CC(=O)N2[C@H](OC[C@@H]2C(C)C)O1	> 100 µM (inactive)	> 100 µM (inactive)	> 100 µM (inactive)	–	–	> 100 µM (inactive)	> 100 µM (inactive)	> 100 µM (inactive)	> 100 µM (inactive)
Cc1ccc(N2C(=O)/C(=C/c3ccc(N(CCC#N)CCC#N)cc3)N=C2COc2ccc(Cl)cc2Cl)cc1	> 100 µM (inactive)	–	> 100 µM (inactive)	–	> 100 µM (inactive)	> 100 µM (inactive)	33.8 µM (inactive)	> 100 µM (inactive)	> 100 µM (inactive)
N#C/N=C(\N)NCCO	> 100 µM (inactive)	40.3 µM (inactive)	75.3 µM (inactive)	> 100 µM (inactive)	> 100 µM (inactive)	> 100 µM (inactive)	> 100 µM (inactive)	> 100 µM (inactive)	> 100 µM (inactive)
C/N=c1\ss/c(=N\C(=S)N(C)C)n1C1CCCCC1	> 31.6 µM (inactive)	> 31.6 µM (inactive)	> 31.6 µM (inactive)	> 31.6 µM (inactive)	> 31.6 µM (inactive)	> 31.6 µM (inactive)	> 31.6 µM (inactive)	> 31.6 µM (inactive)	> 100 µM (inactive)
Oc1cc(Cl)ncn1	–	> 100 µM (inactive)	> 100 µM (inactive)	> 100 µM (inactive)	> 100 µM (inactive)	> 100 µM (inactive)	> 100 µM (inactive)	> 100 µM (inactive)	> 100 µM (inactive)
CC(C)CCS(=O)(=O)OCCCCOS(=O)(=O)CCC(C)C	–	> 100 µM (inactive)	> 100 µM (inactive)	> 100 µM (inactive)	> 100 µM (inactive)	> 100 µM (inactive)	–	> 100 µM (inactive)	–
CC(C)C(NCc1c2ccccc2nc2ccccc12)C(=O)O (configuration not stated)	21.1 µM (inactive)	33 µM (inactive)	27.2 µM (inactive)	32.6 µM (inactive)	–	39 µM (inactive)	–	58.2 µM (inactive)	19.9 µM (inactive)
NNC(=O)/C(NC(=O)c1ccccc1)=C(\N)c1ccc(Cl)cc1	–	> 100 µM (inactive)	> 100 µM (inactive)	> 100 µM (inactive)	> 100 µM (inactive)	> 100 µM (inactive)	> 100 µM (inactive)	> 100 µM (inactive)	–
CC1=C2[C@H](c3ccccc3)C3C=CC2(c2ccccc23)N(C(=O)C(c2ccccc2)c2ccccc2)C1=O (some centres not stated)	> 100 µM (inactive)	> 100 µM (inactive)	> 100 µM (inactive)	> 100 µM (inactive)	–	> 100 µM (inactive)	> 100 µM (inactive)	> 100 µM (inactive)	–
c1ccc(C2=NOC3(c4ccccc4)SC4CCCCC4CN23)cc1 (configuration not stated)	52.4 µM (inactive)	30.5 µM (inactive)	15.6 µM (inactive)	32.6 µM (inactive)	34 µM (inactive)	13.2 µM (inactive)	26.9 µM (inactive)	39.5 µM (inactive)	–
COc1ccc2c(c1)[n+]([O-])c(-c1ccc(C)cc1)c(N)[n+]2[O-]	–	51.1 µM (inactive)	24.9 µM (inactive)	37.7 µM (inactive)	70.5 µM (inactive)	59.6 µM (inactive)	> 100 µM (inactive)	36.1 µM (inactive)	–
COc1cc(/C=C/C(=O)c2cccc3ccccc23)cc(OC)c1OC	7.74 µM (inactive)	7.33 µM (inactive)	–	3.59 µM (inactive)	3.44 µM (inactive)	2.73 µM (inactive)	12.4 µM (inactive)	3.94 µM (inactive)	–
CC(C)(c1ccc(OC#N)cc1)c1ccc(OC#N)cc1	–	> 82.6 µM (inactive)	> 41.5 µM (inactive)	–	> 100 µM (inactive)	> 100 µM (inactive)	> 100 µM (inactive)	> 74.6 µM (inactive)	> 100 µM (inactive)
N#CC1(C#N)C(c2ccc(C3C(C#N)(C#N)C3(C#N)C#N)cc2)C1(C#N)C#N	–	> 100 µM (inactive)	> 100 µM (inactive)	> 100 µM (inactive)	–	> 100 µM (inactive)	> 100 µM (inactive)	> 100 µM (inactive)	–
Nc1cc(C(=O)NC2C3CC4CC(C3)CC2C4)nc(S)n1 (configuration not stated)	> 100 µM (inactive)	> 100 µM (inactive)	–	–	> 100 µM (inactive)	> 100 µM (inactive)	–	> 100 µM (inactive)	–
Cc1c2oc3c(C)ccc(C(=O)N[C@@H]4C(=O)N[C@H](C(C)C)C(=O)N5CCC[C@H]5C(=O)N(C)CC(=O)N(C)[C@@H](C(C)C)C(=O)O[C@H]4C)c3nc-2c(C(=O)N[C@@H]2C(=O)N[C@H](C(C)C)C(=O)N3CCC[C@H]3C(=O)N(C)CC(=O)N(C)[C@@H](C(C)C)C(=O)O[C@H]2C)c(N)c1=O (I: [aThr][dV]P[Sar][NMeV] / II: [aThr][dV]P[Sar][NMeV]; ester I:1-I:C, II:1-II:C; linker I:N-II:N via Actinocin(1to9))	0.000897 µM (active)	0.00155 µM (active)	0.00295 µM (active)	0.00031 µM (active)	0.0027 µM (active)	–	0.00611 µM (active)	0.00292 µM (active)	–
